Results from US20030108951A1, “Use of diseases-associated gene” (priority 2000, published 2003).

Experiments:
CARP gene [1] = experiment: CARP gene expression in primary neonatal rat cardiomyocytes, TaqMan quantification; format: cell-based; conditions: serum-removed medium, added to 10 nM, 100 nM or 1000 nM, at maximum
CARP gene [2] = experiment: CARP gene expression in H9c2 cells, TaqMan PCR; format: cell-based, rat; conditions: serum-free DMEM, 10 nM or 100 nM, 4 hours and 8 hours, at maximum
Description: H9c2 cell is a cell line derived from rat cardiomyocytes and was purchased from ATCC. The cells were incubated in DMEM medium supplemented with 10% calf serum. After recovery of cells using trypsin, the cells were inoculated on a 12-well plate in 100000 cells/well, followed by incubation in a 10% calf serum-containing DMEM medium for 12 hours. Thereafter, the medium was exchanged with a fresh serum-free DMEM medium, to which norepinephrine was supplemented in 10 nM or 100 nM, and the CARP gene expression level was quantitatively determined by TaqMan PCR with passage of 4 hours and 8 hours. Also, the copy number of […] gene (G3PDH) was quantitatively determined in a similar manner, and the copy number of CARP gene calculated was corrected by G3PDH. […] According to this system, the CARP gene expression can be quantitatively determined in response to various hypertrophic stimuli or in the apoptosis induction stage, and thus the system can be used for screening a CARP gene expression regulator. Moreover, by performing reporter gene assay using a promoter of the CARP gene, a low variation rate can be changed to a high variation rate to achieve high sensitization, thus enabling to high throughput screening.

SMILES	increase of expression of the CARP gene (CARP gene [1])	increase of expression level of CARP gene (corrected by G3PDH) (CARP gene [2]) [fold]
CC[C@H](C)[C@H](NC(=O)[C@H](CC(=O)O)NC(=O)[C@H](CC(C)C)NC(=O)[C@H](Cc1c[nH]cn1)NC(=O)[C@@H]1CSSC[C@H](N)C(=O)N[C@@H](CO)C(=O)N[C@H]2CSSC[C@H](NC(=O)[C@H](CCC(=O)O)NC(=O)[C@H](CCCCN)NC(=O)[C@H](CC(=O)O)NC(=O)[C@H](CCSC)NC(=O)[C@H](CC(C)C)NC(=O)[C@H](CO)NC(=O)[C@H](CO)NC2=O)C(=O)N[C@@H](C(C)C)C(=O)N[C@@H](Cc2ccc(O)cc2)C(=O)N[C@@H](Cc2ccccc2)C(=O)N1)C(=O)N[C@H](C(=O)N[C@@H](Cc1c[nH]c2ccccc12)C(=O)O)[C@@H](C)CC [endothelin]	about 3 times	–
NC[C@H](O)c1ccc(O)c(O)c1 [norepinephrine]	about 3 times	~2
